Source: the NIST ThermoML archive (doi:10.1021/je050538q)

How the values were obtained:
[1] = xn = mol fraction of the nth substance listed; settings: 298.15 K, 101 kPa, Liquid
[2] = refractive index (Na D-line) (dimensionless); xn = mol fraction of the nth substance listed; settings: 298.15 K, 101 kPa, Liquid
[3] = Liquid
[4] = refractive index (Na D-line) (dimensionless); settings: 298.15 K; 101.33 kPa; Liquid

CCC(C)(C)O [2-methylbutan-2-ol] + CCOC(C)=O
Settings	mass density, [1] [kg/m3]	refractive index, [2]	viscosity, [1] [mPa·s]
x1 = 0.0279	891.15	1.3711	0.464
x1 = 0.0573	887.59	1.3723	0.508
x1 = 0.096	883.06	1.3739	0.567
x1 = 0.1672	874.97	1.3767	0.691
x1 = 0.2475	866.39	1.3798	0.85
x1 = 0.3322	857.83	1.383	1.041
x1 = 0.4168	849.81	1.3861	1.261
x1 = 0.4994	842.59	1.3891	1.503
x1 = 0.5831	835.67	1.3919	1.776
x1 = 0.6658	829.16	1.3946	2.078
x1 = 0.7486	822.86	1.397	2.412
x1 = 0.8336	816.62	1.3993	2.791
x1 = 0.9149	810.81	1.4011	3.188
x1 = 0.9445	808.73	1.4017	3.344
x1 = 0.9712	806.91	1.4021	3.486
x1 = 1	804.98	1.4025	3.645

CCOC(C)=O [ethyl acetate]
[3], 298.15 K, 101 kPa
Settings	mass density [kg/m3]	viscosity [mPa·s]
–	894.6	0.426

Settings	refractive index
[4]	1.3699

CC(=O)N(C)C [N,N-dimethylethanamide] + CCOC(C)=O
Settings	mass density, [1] [kg/m3]	refractive index, [2]	viscosity, [1] [mPa·s]
x1 = 0.0392	896.84	1.3731	0.442
x1 = 0.0791	898.95	1.3763	0.458
x1 = 0.156	902.75	1.3824	0.49
x1 = 0.2331	906.43	1.3883	0.523
x1 = 0.3109	909.97	1.3942	0.558
x1 = 0.3875	913.34	1.3999	0.595
x1 = 0.4646	916.63	1.4054	0.634
x1 = 0.541	919.8	1.4106	0.674
x1 = 0.6137	922.68	1.4153	0.713
x1 = 0.6931	925.71	1.4201	0.757
x1 = 0.7718	928.62	1.4246	0.803
x1 = 0.8145	930.15	1.4269	0.828
x1 = 0.8896	932.81	1.4307	0.874
x1 = 0.9558	935.14	1.4338	0.916
x1 = 1	936.7	1.4357	0.945

CCOC(C)=O [ethyl acetate] + CCC(C)(C)O
x2 = 0
Settings	mass density [kg/m3]	refractive index	viscosity [mPa·s]
[1]	894.6	–	0.426
[2]	–	1.3699	–

CCC(C)(C)O [2-methylbutan-2-ol] + CC(=O)N(C)C
Settings	mass density, [1] [kg/m3]	refractive index, [2]	viscosity, [1] [mPa·s]
x2 = 0	804.98	1.4025	3.645
x2 = 0.0112	806.65	1.4031	3.6
x2 = 0.0284	809.1	1.404	3.533
x2 = 0.0423	810.93	1.4046	3.48
x2 = 0.0681	814.29	1.4058	3.381
x2 = 0.1023	818.47	1.4072	3.254
x2 = 0.1613	825.31	1.4095	3.041
x2 = 0.2112	830.81	1.4113	2.87
x2 = 0.253	835.39	1.4128	2.731
x2 = 0.2912	839.58	1.4141	2.608
x2 = 0.3366	844.6	1.4156	2.467
x2 = 0.3844	850.11	1.4171	2.325
x2 = 0.4203	854.29	1.4182	2.221
x2 = 0.4743	860.87	1.4198	2.071
x2 = 0.5864	875.18	1.423	1.78
x2 = 0.6721	886.7	1.4254	1.578
x2 = 0.7474	897.47	1.4276	1.413
x2 = 0.8321	910.06	1.4302	1.242
x2 = 0.9168	923.22	1.4329	1.086
x2 = 0.954	929.18	1.4341	1.021

CCC(C)(C)O [2-methylbutan-2-ol]
[3], 298.15 K, 101 kPa
Settings	mass density [kg/m3]	viscosity [mPa·s]
–	804.98	3.645

Settings	viscosity [mPa·s]
[3], 303.15 K, 101.33 kPa, Capillary tube (Ostwald / Ubbelohde) method	2.81

Settings	refractive index
[4]	1.4025

CC(=O)N(C)C [N,N-dimethylethanamide] + CCC(C)(C)O
x1 = 1
Settings	mass density [kg/m3]	refractive index	viscosity [mPa·s]
[1]	936.7	–	0.945
[2]	–	1.4357	–

CCOC(C)=O [ethyl acetate] + CC(=O)N(C)C
x2 = 0
Settings	mass density [kg/m3]	refractive index	viscosity [mPa·s]
[1]	894.6	–	0.426
[2]	–	1.3699	–

CC(=O)N(C)C [N,N-dimethylethanamide]
[3], 298.15 K, 101 kPa
Settings	mass density [kg/m3]	viscosity [mPa·s]
–	936.7	0.945

Settings	refractive index
[4]	1.4357
